Test results published in US8835472B2, “Compounds, pharmaceutical compositions and uses thereof” (Boehringer Ingelheim International GmbH, priority 2010, dated 2014).

Biological target: human ACC2 (Homo sapiens (Human), UniProt O00763)
Test: ACC2 assay, spectrophotometric 384 well assay (NADH-linked, coupled lactate dehydrogenase/pyruvate kinase reaction)
Assay type: biochemical
Settings: hACC2 construct lacking the 128 N-terminal amino acids; 25° C., 340 nm over 15 minutes
Summary of the method: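 Kinetic NADH-linked assay (pyruvate kinase/lactate dehydrogenase coupling) with baculovirus-expressed hACC2 missing its first 128 amino acids. Started with 500 μM ATP and 200 μM each NADH and acetyl-CoA; slope followed 15 min at 25 °C, pH 7.5. No-acetyl-CoA wells define 0%; IC50 by nonlinear regression.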

Chain of human ACC2 (O00763 129-2458): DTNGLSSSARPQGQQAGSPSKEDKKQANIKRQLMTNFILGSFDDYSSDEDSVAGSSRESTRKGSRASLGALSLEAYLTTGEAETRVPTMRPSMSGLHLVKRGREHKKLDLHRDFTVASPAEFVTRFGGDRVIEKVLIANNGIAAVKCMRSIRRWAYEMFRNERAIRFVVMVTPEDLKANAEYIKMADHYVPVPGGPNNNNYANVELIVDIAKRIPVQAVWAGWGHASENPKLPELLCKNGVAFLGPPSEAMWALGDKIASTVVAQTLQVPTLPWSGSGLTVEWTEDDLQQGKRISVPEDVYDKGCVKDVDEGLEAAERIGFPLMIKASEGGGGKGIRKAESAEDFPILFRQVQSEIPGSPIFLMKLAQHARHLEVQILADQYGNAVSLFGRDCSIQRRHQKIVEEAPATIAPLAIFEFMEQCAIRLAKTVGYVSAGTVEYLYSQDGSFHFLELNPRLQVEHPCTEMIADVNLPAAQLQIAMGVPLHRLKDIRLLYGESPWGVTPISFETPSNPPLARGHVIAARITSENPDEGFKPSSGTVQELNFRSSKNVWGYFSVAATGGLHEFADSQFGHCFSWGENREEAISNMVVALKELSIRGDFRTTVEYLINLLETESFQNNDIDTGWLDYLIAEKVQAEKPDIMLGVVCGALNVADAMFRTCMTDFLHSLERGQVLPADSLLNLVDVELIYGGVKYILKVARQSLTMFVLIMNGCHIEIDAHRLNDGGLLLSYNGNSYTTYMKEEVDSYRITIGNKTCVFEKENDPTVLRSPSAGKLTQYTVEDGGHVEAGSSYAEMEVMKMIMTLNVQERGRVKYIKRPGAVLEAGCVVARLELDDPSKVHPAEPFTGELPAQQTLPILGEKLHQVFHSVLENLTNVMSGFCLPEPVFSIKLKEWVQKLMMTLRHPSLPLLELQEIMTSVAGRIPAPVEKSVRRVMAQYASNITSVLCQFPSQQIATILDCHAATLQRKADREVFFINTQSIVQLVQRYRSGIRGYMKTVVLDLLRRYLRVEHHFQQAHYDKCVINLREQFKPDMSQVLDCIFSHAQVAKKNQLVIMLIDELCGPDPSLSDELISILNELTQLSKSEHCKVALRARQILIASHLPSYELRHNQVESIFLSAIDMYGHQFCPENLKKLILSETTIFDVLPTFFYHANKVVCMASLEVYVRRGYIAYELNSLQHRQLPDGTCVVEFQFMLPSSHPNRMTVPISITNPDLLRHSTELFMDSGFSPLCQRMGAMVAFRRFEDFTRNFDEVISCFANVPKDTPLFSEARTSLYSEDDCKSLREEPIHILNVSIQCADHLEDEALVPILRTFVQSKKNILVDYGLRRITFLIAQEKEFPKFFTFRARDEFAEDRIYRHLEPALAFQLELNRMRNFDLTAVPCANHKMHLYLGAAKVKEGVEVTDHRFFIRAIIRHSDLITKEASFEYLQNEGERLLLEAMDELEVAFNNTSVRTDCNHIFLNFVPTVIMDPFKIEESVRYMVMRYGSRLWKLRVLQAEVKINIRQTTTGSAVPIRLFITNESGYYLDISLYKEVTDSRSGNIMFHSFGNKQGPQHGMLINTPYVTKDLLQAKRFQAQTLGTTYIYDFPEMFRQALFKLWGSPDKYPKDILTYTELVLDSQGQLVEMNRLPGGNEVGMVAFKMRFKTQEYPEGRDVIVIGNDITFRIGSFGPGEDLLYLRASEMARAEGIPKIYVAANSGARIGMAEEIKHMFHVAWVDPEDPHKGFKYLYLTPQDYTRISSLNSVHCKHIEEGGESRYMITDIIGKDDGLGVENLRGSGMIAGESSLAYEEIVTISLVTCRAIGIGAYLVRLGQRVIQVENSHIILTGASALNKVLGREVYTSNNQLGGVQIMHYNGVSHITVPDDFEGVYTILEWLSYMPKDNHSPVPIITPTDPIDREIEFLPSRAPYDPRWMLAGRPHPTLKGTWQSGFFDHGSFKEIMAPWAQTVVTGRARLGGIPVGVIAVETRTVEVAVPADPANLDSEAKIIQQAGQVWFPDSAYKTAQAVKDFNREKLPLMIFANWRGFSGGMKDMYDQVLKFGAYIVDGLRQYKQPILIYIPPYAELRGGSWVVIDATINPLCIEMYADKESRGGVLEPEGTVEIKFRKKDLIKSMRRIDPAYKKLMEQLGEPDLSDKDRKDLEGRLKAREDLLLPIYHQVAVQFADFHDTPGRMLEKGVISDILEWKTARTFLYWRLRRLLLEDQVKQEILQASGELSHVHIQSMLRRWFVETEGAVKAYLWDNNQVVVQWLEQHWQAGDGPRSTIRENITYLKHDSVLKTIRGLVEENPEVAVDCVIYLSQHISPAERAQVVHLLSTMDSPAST

SMILES	IC50 [nM]
CC(=O)NC(C)Cc1ccc(C#Cc2cccc(C(=O)NCc3ccccn3)c2)cc1 (centres unmarked) [Example 8.23]	10900
CC(=O)NC(C)Cc1ccc(C#Cc2ccnc(N3CCC4(CCC4)C3)n2)cc1 (centres unmarked) [Example 11.26]	430
CCCOc1ccc(C#Cc2ccc(CC(C)NC(=O)C3CC3)cc2)cc1 (centres unmarked) [Example 14.40]	80
CCCOc1cc(C#Cc2ccc(CC(C)NC(=O)C3CC3)cc2)ccn1 (centres unmarked) [Example 14.44]	360
CC(=O)NC(C)Cc1ccc(C#Cc2ccc(OCC(C)C)cc2)cc1 (centres unmarked) [Example 2.17]	110
CCOc1ccc(C#Cc2ccc(CC(C)NC(=O)CCNC(C)=O)cc2)cc1 (centres unmarked) [Example 4.70]	1300
CC(=O)NC(C)Cc1ccc(C#Cc2ccc(Oc3ccncc3)cc2)cc1 (centres unmarked) [Example 10.2]	1200
CCOc1ccc(C#Cc2ccc(CC(C)NC(=O)c3cc[nH]c3)cc2)cc1 (centres unmarked) [Example 4.68]	450
CC(=O)NC(C)Cc1ccc(C#Cc2cc3c(cc2C#N)OCO3)cc1 (centres unmarked) [Example 3.7]	10600
CC(=O)N[C@@H](C)Cc1ccc(C#Cc2ccc(C(C)(C)C)cc2)cc1 [Example 23.4]	90
CCOc1ccc(C#Cc2ccc(C(C)NC(=O)C(C)O)cc2)cc1 (centres unmarked) [Example 4.40]	3700
CC(=O)NC(C)(C)c1ccc(C#Cc2ccc(OC3CCC3)cc2)cc1 [Example 2.42]	24600
CC(=O)N[C@@H](C)c1ccc(C#Cc2ccc(OCC(C)C)cc2)cc1 [Example 14.26]	140
CC(C)Nc1ncc(C#Cc2ccc(CC(C)NC(=O)C3CC3)cc2)cn1 (centres unmarked) [Example 13.49]	2600
CC(=O)NC(C)Cc1ccc(C#Cc2ccc(OC3CCN(C)C3)cc2)cc1 (centres unmarked) [Example 9.7]	1900
CC(=O)NC(C)Cc1ccc(C#Cc2cnc(NCc3csc(C)n3)nc2)cc1 (centres unmarked) [Example 13.69]	5000
CC(=O)N[C@@H](C)c1ccc(C#Cc2cnc(OCCC(F)(F)F)nc2)cc1 [Example 12.64]	550
CCOc1ccc(C#Cc2ccc(C(C)NC(=O)CO)cc2)cc1 (centres unmarked) [Example 4.48]	3900
COc1ccc(C#Cc2ccc(CC(C)NC(C)=O)cc2)c(C)c1 (centres unmarked) [Example 1.26]	320
CCCOc1cc(C#Cc2ccc([C@H](C)NC(C)=O)cc2)ccn1 [Example 14.24]	200
CC(=O)NC(C)Cc1ccc(C#Cc2ccc(OCc3ccco3)cc2)cc1 (centres unmarked) [Example 9.16]	260
COc1ccc(C#Cc2ccc(CC(C)NC(=O)C3CC3)cc2)cn1 (centres unmarked) [Example 2.64]	2800

SMILES	IC50 [nM]
CCOc1ccc(C#Cc2ccc(C(C)NC(=O)C3(C)CC3)cc2)cc1 (centres unmarked) [Example 4.44]	1500
CCCOc1nccc(C#Cc2ccc(CC(C)NC(C)=O)cc2)n1 (centres unmarked) [Example 12.8]	2200
COc1ccc(C#Cc2ccc(CC(C)NC(C)=O)cc2)nc1 (centres unmarked) [Example 3.11]	4300
CC(=O)NC(C)Cc1ccc(C#Cc2ccc(C(=O)NC3CCC3)cc2)cc1 (centres unmarked) [Example 8.21]	1400
CCCCn1ccc(C#Cc2ccc(CC(C)NC(C)=O)cc2)cc1=O (centres unmarked) [Example 2.85]	1100
CC(Cc1ccc(C#Cc2cnc(NC3CCC3)nc2)cc1)NC(=O)C1CC1 (centres unmarked) [Example 13.44]	320
CC(=O)NC(C)Cc1ccc(C#Cc2ccc(CCO)cc2)cc1 (centres unmarked) [Example 2.18]	2200
CCN(CC)c1nccc(C#Cc2ccc(CC(C)NC(C)=O)cc2)n1 (centres unmarked) [Example 11.49]	460
COC(=O)NC(C)Cc1ccc(C#Cc2cnc(N3CCCCC3)nc2)cc1 (centres unmarked) [Example 13.32]	410
CCCOc1ccc(C#Cc2ccc(CC(C)NC(=O)C3CC3)cc2)c(OC)c1 (centres unmarked) [Example 2.68]	250
CC(=O)NC(C)Cc1ccc(C#Cc2ccc(-n3cccc3)cc2)cc1 (centres unmarked) [Example 2.1, N-(1-(4-((4-(1H-Pyrrol-1-yl)phenyl)ethynyl)phenyl)propan-2-yl)acetamide]	460
CCOc1ccc(C#Cc2ccc(CC(C)NC(=O)CCO)cc2)cc1 (centres unmarked) [Example 4.18]	460
CC(=O)NC(C)Cc1ccc(C#Cc2cccc(OC(F)F)c2)cc1 (centres unmarked) [Example 1.7]	4900
CCC(C)Oc1ccc(C#Cc2ccc(CCC(C)NC(C)=O)cc2)cc1 (centres unmarked) [Example 14.15]	140
CCOc1cc(C#Cc2ccc(CC(C)NC(C)=O)cc2)ccn1 (centres unmarked) [Example 2.28]	270
CC(=O)NC(C)Cc1ccc(C#Cc2ccnc(N(C)Cc3ccccc3)n2)cc1 (centres unmarked) [Example 11.45]	530
CCC(C)Oc1nccc(C#Cc2ccc(CC(C)NC(C)=O)cc2)n1 (centres unmarked) [Example 12.7]	3600
CC(=O)NC(C)Cc1ccc(C#Cc2ccnc(N(C)CC(C)C)n2)cc1 (centres unmarked) [Example 11.15]	330
CC(=O)NC(C)Cc1ccc(C#Cc2cnc(NCc3ccccc3C)nc2)cc1 (centres unmarked) [Example 13.55]	130
CC(=O)NC(C)Cc1ccc(C#Cc2cnc(NCCF)nc2)cc1 (centres unmarked) [Example 13.65]	1600
CC(=O)NC(C)Cc1ccc(C#Cc2ccc(-c3ccc(Cl)cc3)nn2)cc1 (centres unmarked) [Example 1.3]	690
COc1ccc(C#Cc2ccc(CC(C)NC(C)=O)cc2)cc1OC (centres unmarked) [22.1]	1600

SMILES	IC50 [nM]
CCOc1cc(C#Cc2ccc(C(C)NC(C)=O)cc2)ncn1 (centres unmarked) [Example 14.4]	1500
COCCOc1ncc(C#Cc2ccc(CC(C)NC(C)=O)cc2)cn1 (centres unmarked) [Example 12.9]	2100
CC(=O)NC(C)Cc1ccc(C#Cc2ccnc(N(C)C3CCOC3)n2)cc1 (centres unmarked) [Example 11.31]	2000
CC(Cc1ccc(C#Cc2ccc(OC(F)F)cc2)cc1)NC(=O)C1CC1 (centres unmarked) [Example 2.59]	2100
CCCOc1ccc(C#Cc2ccc(CCC(C)NC(C)=O)cc2)cc1 (centres unmarked) [Example 14.11]	130
CC(=O)NC(C)Cc1ccc(C#Cc2ccc(OCC(C)C)cn2)cc1 (centres unmarked) [Example 23.12]	650
CCC(C)N(C)c1ncc(C#Cc2ccc(CC(C)NC(C)=O)cc2)cn1 (centres unmarked) [Example 13.21]	210
CCOc1ccc(C#Cc2ccc(CCC(C)NC(C)=O)cc2)cn1 (centres unmarked) [Example 14.53]	280
CC(=O)NC(C)Cc1ccc(C#Cc2ccc(C(=O)NCC3CC3)cc2)cc1 (centres unmarked) [Example 8.6]	1500
CC(=O)NC(C)Cc1ccc(C#Cc2cnc(NCC(F)(F)F)nc2)cc1 (centres unmarked) [Example 13.59]	360
CC(=O)NC(C)Cc1ccc(C#Cc2ccc(OC(C)C)nn2)cc1 (centres unmarked) [Example 2.86]	930
CC(=O)NC(C)Cc1ccc(C#Cc2ccnc(N(C)C3CCCC3)n2)cc1 (centres unmarked) [30.1]	330
CCOc1ccc(C#Cc2ccc(CCNC(C)=O)cn2)cc1 [Example 35.3]	26900
CC(=O)NC(C)Cc1ccc(C#Cc2ccc(OC3CC3)cc2)cc1 (centres unmarked) [Example 2.100]	120
CC(=O)NC(C)Cc1ccc(C#Cc2ccc(C(C)(C)C)cc2C#N)cc1 (centres unmarked) [Example 2.11]	270
COCCn1ccc(C#Cc2ccc(CC(C)NC(C)=O)cc2)cc1=O (centres unmarked) [Example 2.83]	17700
CCCOc1ccc(C#Cc2ccc(CC(C)(C)NC(=O)C3CC3)cc2)cc1 [Example 35.2]	330
CC(=O)N[C@@H](C)c1ccc(C#Cc2cnc(NCCC(F)(F)F)nc2)cc1 [Example 13.94]	3600
CC(=O)NC(C)Cc1ccc(C#Cc2ccnc(OCc3ccccc3)c2)cc1 (centres unmarked) [Example 3.9]	260
CCOc1ccc(C#Cc2ccc(CC(C)NC(=O)COC)cc2)cc1 (centres unmarked) [Example 4.6]	970
CCOc1ccc(C#Cc2ccc(C(C)NS(=O)(=O)CC3CC3)cc2)cc1 (centres unmarked) [Example 5.2]	7200
CCCOc1ccc(C#Cc2ccc(CC(C)NC(C)=O)cc2)nc1 (centres unmarked) [Example 23.8]	180

SMILES	IC50 [nM]
CC(=O)NC(C)Cc1ccc(C#Cc2cnc(NCC(C)C)nc2)cc1 (centres unmarked) [Example 13.20]	260
CC(Cc1ccc(C#Cc2cnc(N3CCC3)nc2)cc1)NC(=O)C1CC1 (centres unmarked) [Example 13.51]	2200
CC(=O)NC(C)Cc1ccc(C#Cc2ccnc(NC(C)C)n2)cc1 (centres unmarked) [Example 11.7]	12700
CCOc1ccc(C#Cc2ccc(CC(C)NC(C)=O)cc2)nc1 (centres unmarked) [Example 23.13]	450
CC(=O)NC(C)Cc1ccc(C#Cc2cccc(C(=O)N3CCN(C)CC3)c2)cc1 (centres unmarked) [Example 8.54]	25100
CC(=O)NC(C)Cc1ccc(C#Cc2ccc(OC3CCC3)cc2)cc1 (centres unmarked) [Example 14.6]	120
CCOc1ccc(C#Cc2ccc(C[C@H](C)NC(C)=O)cc2)cn1 [Example 23.5]	80
COc1ncccc1C#Cc1ccc(CC(C)NC(C)=O)cc1 (centres unmarked) [Example 2.13]	5300
CC(=O)NC(C)Cc1ccc(C#Cc2cnc(OCCC(C)C)nc2)cc1 (centres unmarked) [Example 12.19]	1200
CC(=O)NC(C)Cc1ccc(C#Cc2ccc(-c3cnco3)cc2)cc1 (centres unmarked) [Example 23.7]	1600
CC(Cc1ccc(C#Cc2cnc(Oc3ccccc3)nc2)cc1)NC(=O)C1CC1 (centres unmarked) [Example 12.24]	590
CCOc1ccc(C#Cc2ccc(CC(C)NC(=O)C(C)C)cc2)cc1 (centres unmarked) [Example 4.2]	190
C=CC(=O)NC(C)c1ccc(C#Cc2ccc(OCC)cc2)cc1 (centres unmarked) [Example 4.39]	710
CC(C)COc1ccc(C#Cc2ccc(CC(C)NC(=O)C3CC3)cc2)cc1 (centres unmarked) [Example 14.17]	510
CC(=O)NC(C)Cc1ccc(C#Cc2cnc(N3CCOCC3)nc2)cc1 (centres unmarked) [Example 13.22]	730
CCCOc1ccc(C#Cc2ccc(CC(C)NC(C)=O)cc2)c(OC)c1 (centres unmarked) [Example 2.32]	160
CCNc1nccc(C#Cc2ccc(CC(C)NC(C)=O)cc2)n1 (centres unmarked) [Example 11.14]	13800
CCOc1ccc(C#Cc2ccc(C(C)NC(=O)N(C)C)cc2)cc1 (centres unmarked) [Example 7.1, 3-(1-(4-((4-Ethoxyphenyl)ethynyl)phenyl)ethyl)-1,1-dimethylurea]	620
CC(=O)N[C@@H](C)c1ccc(C#Cc2cnc(N3CC4CCCC4C3)nc2)cc1 (some centres unmarked) [Example 13.93]	270
CCOc1ccc(C#Cc2ccc(C(C)NC(=O)OC)cc2)cc1 (centres unmarked) [Example 29.1, {1-[4-(4-Ethoxy-phenylethynyl)-phenyl]ethyl}-carbamic acid methyl ester]	13100
